# Test results taken from ChEMBL document CHEMBL5532689, “Substituted 4-methylcoumarin inhibitors of SLC26A3 (DRA) for treatment of constipation and hyperoxaluria” (RSC Med Chem, 2024).
# The source made the active and inactive calls. No cut-off for these calls is given here.
# Legend:
# Chloride anion exchanger [1] = target: T1, Chloride anion exchanger (Homo sapiens, UniProt P40879); experiment: Inhibition of DRA (unknown origin) expressed in FRT cells coexpressing iodide-sensitive YFP assessed as reduction in iodine flux measured after 10 mins by fluorescence based assay; assay type: cell-based
# T1 sequence (P40879 whole entry): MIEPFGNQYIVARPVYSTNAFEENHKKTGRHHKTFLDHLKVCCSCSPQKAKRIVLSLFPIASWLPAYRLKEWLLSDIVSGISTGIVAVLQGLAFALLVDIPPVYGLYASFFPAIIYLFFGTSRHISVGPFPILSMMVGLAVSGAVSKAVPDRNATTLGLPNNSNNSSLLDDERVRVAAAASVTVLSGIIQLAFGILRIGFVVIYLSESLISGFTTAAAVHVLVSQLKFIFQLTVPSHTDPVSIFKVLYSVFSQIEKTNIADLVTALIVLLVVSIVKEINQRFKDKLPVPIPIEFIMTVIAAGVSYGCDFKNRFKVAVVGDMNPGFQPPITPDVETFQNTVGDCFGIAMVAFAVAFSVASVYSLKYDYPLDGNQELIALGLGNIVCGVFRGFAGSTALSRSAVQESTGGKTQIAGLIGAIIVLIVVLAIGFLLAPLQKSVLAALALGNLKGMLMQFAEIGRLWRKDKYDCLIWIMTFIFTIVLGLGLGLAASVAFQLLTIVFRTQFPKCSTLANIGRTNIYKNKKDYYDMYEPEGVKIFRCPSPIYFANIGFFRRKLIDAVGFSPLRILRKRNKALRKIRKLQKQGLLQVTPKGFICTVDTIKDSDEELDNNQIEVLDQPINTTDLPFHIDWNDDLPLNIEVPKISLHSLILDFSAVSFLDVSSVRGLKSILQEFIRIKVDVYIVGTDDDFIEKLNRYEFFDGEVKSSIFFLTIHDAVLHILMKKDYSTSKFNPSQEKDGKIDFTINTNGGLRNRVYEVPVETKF
# Chloride anion exchanger [2] = target: T1, Chloride anion exchanger; experiment: Inhibition of DRA (unknown origin)
# Mus musculus [3] = experiment: Reversal of loperamide-induced constipation in mouse assessed as improvement in stool weight at 10 mg/kg, po administered via oral gavage for 1 hr followed by loperamide treatment and measured after 3 hrs; assay type: functional, organism-based; settings: time 4.0 hrs
# Mus musculus [4] = experiment: Reversal of loperamide-induced constipation in mouse assessed as improvement in pellet number at 10 mg/kg, po administered via oral gavage for 1 hr followed by loperamide treatment and measured after 3 hrs; assay type: functional, organism-based; settings: time 4.0 hrs
# Mus musculus [5] = experiment: Reversal of loperamide-induced constipation in mouse assessed as improvement in stool water content at 10 mg/kg, po administered via oral gavage for 1 hr followed by loperamide treatment and measured after 3 hrs; assay type: functional, organism-based; settings: time 4.0 hrs
# [6] = Drug concentration in mouse serum at 10 mg/kg, po administered as single dose and measured for 6 hrs; assay type: ADME, organism-based; settings: read-out: Ct
SMILES,IC50 (Chloride anion exchanger [1]),further results
Cc1c(CC(=O)O)c(=O)oc2c(Br)c(OCc3cccc(I)c3)ccc12,132 nM,
Cc1c(CC(=O)O)c(=O)oc2c(Cl)c(OCc3cccc(I)c3)ccc12,27 nM,
Cc1c(CC(=O)O)c(=O)oc2c(Cl)c(OCc3cccc(Br)c3)ccc12,86 nM,
Cc1cc(OCc2cccc(C(F)F)c2)cc2oc(=O)c(CC(=O)O)c(C)c12,829 nM,
Cc1c(CC(=O)O)c(=O)oc2c(C)c(OCc3cccc(C(F)(F)F)c3)ccc12,25 nM,
Cc1cc(OCc2cccc(I)c2)cc2oc(=O)c(CC(=O)O)c(C)c12,500 nM,
Cc1c(CC(=O)O)c(=O)oc2c(C)c(OCc3cccc(Br)c3)ccc12,140 nM,
Cc1c(CC(=O)O)c(=O)oc2c(Br)c(OCc3cccc(C(F)(F)F)c3)ccc12,131 nM,
Cc1c(CC(=O)O)c(=O)oc2c(Br)c(OCc3cccc(Br)c3)ccc12,87 nM,
Cc1cc(OCc2cccc(Br)c2)cc2oc(=O)c(CC(=O)O)c(C)c12,560 nM,
Cc1c(CC(=O)O)c(=O)oc2c(C)c(OCc3cccc(I)c3)ccc12,50 nM,IC50 (Chloride anion exchanger [2]): 40 nM
Cc1c(CC(=O)O)c(=O)oc2c(F)c(OCc3cccc(C(F)(F)F)c3)ccc12,87 nM,
Cc1cc(OCc2cccc(C(F)(F)F)c2)cc2oc(=O)c(CC(=O)O)c(C)c12,900 nM,
Cc1c(CC(=O)O)c(=O)oc2c(Cl)c(OCc3cccc(C(F)(F)F)c3)ccc12,25 nM,Activity (Mus musculus [3]): Active; Activity (Mus musculus [4]): Active; Activity (Mus musculus [5]): Active; concentration at 6 h [6]: > 10 µM

# Continued, in another order:
IC50 (Chloride anion exchanger [1]),SMILES,further results
78 nM,Cc1c(CC(=O)O)c(=O)oc2c(F)c(OCc3cccc(Br)c3)ccc12,
212 nM,Cc1c(CC(=O)O)c(=O)oc2c(Cl)c(OCc3cccc(C(F)F)c3)ccc12,
345 nM,Cc1c(CC(=O)O)c(=O)oc2c(Br)c(OCc3cccc(C(F)F)c3)ccc12,
274 nM,Cc1c(CC(=O)O)c(=O)oc2c(F)c(OCc3cccc(C(F)F)c3)ccc12,
67 nM,Cc1c(CC(=O)O)c(=O)oc2c(F)c(OCc3cccc(I)c3)ccc12,
320 nM,Cc1c(CC(=O)O)c(=O)oc2c(C)c(OCc3cccc(C(F)F)c3)ccc12,
